Laboratory results from patent US5661156A, “Rapamycin derivatives” (SmithKline Beecham Corporation, priority 1995, dated 1997).

Legend:
[1] = tested on: Spleen cells from BDF1 female mice; assay: Mitogenesis Assay for Immunosuppressive Activity (concanavalin A, 3H-thymidine); type: cell-based; conditions: BDF1 mouse spleen cells, Concanavalin A 5 μg/ml, 72 hours, 3H-thimidine last 18 hours
Procedure: (§1) Mitogenesis Assay for Immunosuppressive Activity
Spleen cells from BDF1 female mice were established in RPMI with 10% fetal calf serum at 5×10^6 /mL. One hundred […] of this suspension (5×10^5 cells) were dispensed into 96-well round-bottomed microtiter plates (Linbro, Flow Laboratories). Concanavalin A (5 μg/ml)was added as the mitogenic stimulus, and the final volume in the microtiter wells was adjusted to 200 μL with RPMI. Cell cultures were incubated for 72 hours at 37° C. in a 5% CO2 atmosphere and pulsed with 0.5 μCi ^3 H-thymidine (specific activity […]) for the last 18 hours of the 72 hour culture. The cells were harvested on an automated multiple sample harvester and cell-associated radioactivity counted in a Beckman liquid scintillation counter. The results are expressed as the mean values derived from quadruplicate measurements. Cell viability was determined by trypan blue exclusion after 72 hours of incubation. Compounds to be tested were added to the microtiter plates at the appropriate dilutions prior to the addition of cells.

[2] = tested on: Saccharomyces cerevisiae; assay: Assay for Antifungal Activity (zones of inhibition on agar); type: cell-based; conditions: YPD agar wells, 48 hours
Procedure: Assay for Antifungal Activity
Yeast organism (Saccharomyces cerevisiae) in logarithmic growth were plated on complete agar medium (YPD). Compounds dissolved in an appropriate aqueous or organic solvent were placed in wells punched in the agar. Plates were incubated for 48 hours and zones of inhibition were measured.
as §1

**Q.** With 14-Desoxo-13-Methoxy-Rapamycin as the molecule, how does the IC50 [1] read?
**A.** 1 µM

**Q.** And the “Yeast IC12” value [2]?
**A.** 52 ng/mL

**Q.** Which IC50 [1] does the source give for `CO[C@H]1CCC[C@@H](C[C@@H](C)[C@@H]2CC(=O)[C@H](C)/C=C(\C)[C@@H](O)[C@@H](OC)C(=O)[C@H](C)C[C@H](C)/C=C/C=C/C=C(\C)[C@@H](OC)C[C@@H]3CC[C@@H](C)[C@@](O)(O3)C(=O)C(=O)N3CCCC[C@H]3C(=O)O2)C1` [Example 1, 43-Deshydroxyrapamycin] here?
**A.** 0.0005 µM

**Q.** Which IC50 [1] does the source give for `CO[C@H]1C[C@@H]2CC[C@@H](C)[C@](O)(CC(=O)N3CCCC[C@H]3C(=O)O[C@H]([C@H](C)C[C@@H]3CC[C@@H](O)[C@H](OC)C3)CC(=O)[C@H](C)/C=C(\C)[C@@H](O)[C@@H](OC)C(=O)[C@H](C)C[C@H](C)/C=C/C=C/C=C/1C)O2` [Example 3, 14-Deoxorapamycin] here?
**A.** 0.015 µM
